# Patent US4132847A, “4-Pyrone prostaglandin antagonists” (Pfizer Inc., priority 1977, dated 1979)
# Test system: accumulation of c-AMP by PGE2
# Assay: Antagonism of PGE2-enhanced c-AMP levels in mouse thymus cells (radioimmunoassay)
# Assay type: cell-based
# Text: A suitable test for this purpose is based on the enhancement of cyclic AMP (adenosine-3',5'-monophosphate) levels in tissues due to adenyl cyclase stimulated by the action of prostaglandins of the PGE2 type. An exemplification of such a test used to determine the antagonist activity of the compounds of the present invention is as follows. A BC 57/BL (Jackson Laboratories) mouse is sacrificed and the thymus gland removed and teased apart to provide thymus cells which are suspended in a culture medium. The degradation of c-AMP is blocked by addition of 4-(3-butoxy-4-methoxybenzyl)-2-imidazolidinone (Hoffman-LaRoche, Ro 20-1724), a c-AMP phosphodiesterase inhibitor. A measured dose of the compound under test is added to the suspension of cells and the suspension is incubated at 37° C. for ten minutes. A measured dose of PGE2 is added to the suspension, which is then incubated for a further period of 30 minutes. The cells are then centrifuged, washed and the c-AMP extracted with ethanol. The ethanol extract is evaporated to dryness, redissolved in buffer solution and the c-AMP level determined by a radioimmunoassay, see Zimmerman et al, Anal. Biochem. 71, 79 (1976) and Steiner et al, J. Biol. Chem. 247, 1106 (1972). Comparison of the enhancement of c-AMP levels produced by PGE2 alone and by PGE2 together with the compound under test allow determination of the antagonist activity.
# An example of the results from this test are those obtained with 2-(3-hydroxy-trans-1-octenyl)-3-(5-carboethoxypentyloxy)-4-pyrone. The initial c-AMP level of the cell culture was measured as 1.9 ± 0.7 picomole c-AMP/10^7 cells. Incubation with 10^-5 M PGE2 alone enhanced the level to 88 ± 7 picomole c-AMP/10^7 cells. By comparison, when the cells were incubated for ten minutes with 7 × 10^-5 M of the test compound the c-AMP level was measured at 2 ± 0.1 picomole c-AMP/10^7 cells. Following incubation for 30 minutes with 10^-5 M PGE2 the level was measured as 51 ± 5 picomole c-AMP/10^7 cells. Similarly, in a second experiment, after ten minutes incubation with 7 × 10^-6 M of the test compound, the c-AMP level was measured at 1.4 ± 0.2 picomoles c-AMP/10^7 cells; after 30 minutes incubation with 10^-5 M PGE2 the c-AMP level was measured as 69 ± 8 picomoles c-AMP/10^7 cells. […] Both of these compounds are well known in the art as prostaglandin antagonists.
structure (smiles),measurement,setting,value
CCCCCC(O)/C=C/c1occc(=O)c1OCCCCCC(=O)OCC (racemic) [2-[(3RS)-3-hydroxy-trans-1-octenyl]-3-(5-carboethoxypentyloxy)-4-pyrone],c-AMP level,"7 × 10^-5 M test compound, then 30 minutes with 10^-5 M PGE2 (PGE2 alone 88 ± 7)",51 ± 5 picomole c-AMP/10^7 cells
same,c-AMP level,"second experiment, 7 × 10^-6 M test compound, then 30 minutes with 10^-5 M PGE2",69 ± 8 picomoles c-AMP/10^7 cells
same,c-AMP level,"second experiment, ten minutes with 7 × 10^-6 M test compound, before PGE2",1.4 ± 0.2 picomoles c-AMP/10^7 cells
same,c-AMP level,"thymus cells incubated ten minutes with 7 × 10^-5 M test compound, before PGE2",2 ± 0.1 picomole c-AMP/10^7 cells
"CCCCCCC#C[C@H]1CCC[C@@H]1OCCCCCC(=O)O [7-oxa-13-prostynoic acid, reference compound]",inhibition at 100 µM,"Mus musculus, concentration of 10^-4 M, same test conditions",45%
"CCCCC[C@H](O)/C=C/[C@H]1[C@H](O)CC(=O)[C@@H]1C/C=C\CCCC(=O)O [PGE2, reference compound]",c-AMP level,incubation with 10^-5 M PGE2 alone (initial level 1.9 ± 0.7),88 ± 7 picomole c-AMP/10^7 cells
"CC(=O)NNC(=O)N1Cc2ccccc2Oc2ccc(Cl)cc21 [SC-19220, reference compound]",inhibition at 50 µM,"Mus musculus, 5 × 10^-5 M, same test conditions",30%
